Laboratory results as given in article PMC3907537, “Evaluation of the Endothelin Receptor Antagonists Ambrisentan, Bosentan, Macitentan, and Sitaxsentan as Hepatobiliary Transporter Inhibitors and Substrates in Sandwich-Cultured Human Hepatocytes” (PLoS ONE, 2014).
Where “and” joins values, the source holds several entries; their conditions need not be identical. Equal entries are not always repeated.

The compounds below were run against T1, NTCP (Homo sapiens, UniProt Q14973) (assay: NTCP inhibition, 3H taurocholate uptake in transfected CHO cells). Details: mean ± SD of 3 independent studies in duplicate, tested 0.14–100 µM.
T1 construct: host or cells: CHO
T1 sequence (Q14973 1-349): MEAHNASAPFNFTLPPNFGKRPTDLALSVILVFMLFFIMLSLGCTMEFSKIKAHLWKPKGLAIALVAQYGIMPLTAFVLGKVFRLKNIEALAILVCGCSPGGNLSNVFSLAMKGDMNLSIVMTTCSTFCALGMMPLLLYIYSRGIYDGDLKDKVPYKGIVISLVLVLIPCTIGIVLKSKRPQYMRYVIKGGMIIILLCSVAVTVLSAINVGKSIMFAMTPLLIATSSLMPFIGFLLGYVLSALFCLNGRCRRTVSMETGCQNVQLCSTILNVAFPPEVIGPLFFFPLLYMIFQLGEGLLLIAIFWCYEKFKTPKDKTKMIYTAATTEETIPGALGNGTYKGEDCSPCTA
Type: cell-based
Text: Chinese Hamster Ovary (CHO) cells were obtained from Professor B. Stieger’s laboratory at University of Zurich, Zurich, Switzerland. Madin-Darby Canine Kidney strain II (MDCKII) cells were obtained from Nederlands Kanker Instituut (NKI), Amsterdam, Netherlands. NTCP-CHO cells, BSEP and MRP2 membrane vesicles were developed and validated at Solvo Biotechnology, Budaors, Hungary.
CHO cells, either wild type or transfected with the genes encoding human NTCP, OATP1B1 and OATP1B3, were maintained in Dulbecco’s Modification of Eagle’s Medium (DMEM) containing 1,000 mg/L D-glucose, L-glutamine, 25 mM HEPES buffer, 110 mg/L sodium pyruvate, 1% Penicillin/Streptomycin, 10% fetal bovine serum (FBS), 0.05 mg/mL L proline and 0.5 mg/mL of geneticin G-418. Cells were maintained in incubators set at 37°C, 90% humidity and 5% CO2. OATP1B1 and OATP1B3 over-expressing cells were seeded in BioCoat Poly-D-Lysine coated 96-well black cell culture plates with clear bottoms at a density of 1×10^5 cells/well. Sodium butyrate (10 mM) was added to the OATP1B1 and OATP1B3 cells once seeded to increase the protein expression level and the cells were grown to confluence overnight. The assay buffer contained 142 mM NaCl, 5 mM KCl, 1 mM KH2PO4, 1.2 mM MgSO4, 1.5 mM CaCl2, 5 mM Glucose and 12.5 mM HEPES (pH 7.4). After removal of the media and before adding test compounds, the cells were washed twice with 37°C assay buffer followed by a 0.5 h pre-incubation with assay buffer. […] Wells were analyzed for Fluo 3 fluorescence at an excitation of 485 nm and emission of 530 nm. Inhibition of NTCP was studied using similar conditions to those described for OATP1B1 and OATP1B3 except that inhibition of the uptake ^3H taurocholate into transfected CHO cells was monitored using radioactive scintillation counting.
All assays were performed in duplicate. […] IC50 values were calculated using non-linear fitting of % inhibition versus concentration to a sigmoidal curve with a variable Hill Coefficient using GraphPad Prism 5 (GraphPad Software Inc., San Diego, CA).

Row | IC50 | Structure (SMILES)
1 | > 100 µM | COC(c1ccccc1)(c1ccccc1)[C@H](Oc1nc(C)cc(C)n1)C(=O)O [ambrisentan]
2 | 36 µM and 35.6 µM | COc1ccccc1Oc1c(NS(=O)(=O)c2ccc(C(C)(C)C)cc2)nc(-c2ncccn2)nc1OCCO [bosentan]
3 | 10 µM and 9.8 µM | CCCNS(=O)(=O)Nc1ncnc(OCCOc2ncc(Br)cn2)c1-c1ccc(Br)cc1 [macitentan]
